Results on 12 molecules are retold here after PubChem BioAssay AID624129 (Sanford-Burnham Center for Chemical Genomics, 2012).

Common to all, as to experiment: potency against CXCR6 with APJ panel – cell-based, beta-arrestin, DiscoveRx, uHTS hits, dose response (AID 624129)
Assay [1] has as its target Beta-galactosidase (Escherichia coli) (UniProt Q8VNN2). The following applies: CXCR6 beta-arrestin (DiscoveRx) antagonist cell assay, b-galactosidase.
Assay [2] has as its target C-X-C chemokine receptor type 6 (Homo sapiens) (UniProt O00574). To be noted: CXCR6 beta-arrestin (DiscoveRx) antagonist cell assay; for inhibition: CXCR6, run 1, dose range 2, at 80 µM (top of the series).
In assay [3] the target is Apelin receptor (Homo sapiens) (UniProt P35414). To be noted: CXCR6 beta-arrestin (DiscoveRx) antagonist cell assay, APJ.
The target of assay [4] is C-C chemokine receptor type 6 (Homo sapiens) (UniProt P51684). The following applies: CXCR6 beta-arrestin (DiscoveRx) antagonist cell assay.
Where [5] appears, read: dose range 1, mean IC50 across replicates.
Where [6] appears, read: CXCR6, dose range 1, mean IC50 across replicates.
[7] abbreviates: CCR6, dose range 1, mean IC50 across replicates.

Calls of active or inactive are those of the source. The rule behind the calls is not given here.

A word on the IC50: it is the concentration needed to halve the response being measured. In general, inhibition refers to the drop in the measured response relative to a control, in per cent.

C-X-C chemokine receptor type 6 (Homo sapiens), sequence (O00574 whole entry, looked up): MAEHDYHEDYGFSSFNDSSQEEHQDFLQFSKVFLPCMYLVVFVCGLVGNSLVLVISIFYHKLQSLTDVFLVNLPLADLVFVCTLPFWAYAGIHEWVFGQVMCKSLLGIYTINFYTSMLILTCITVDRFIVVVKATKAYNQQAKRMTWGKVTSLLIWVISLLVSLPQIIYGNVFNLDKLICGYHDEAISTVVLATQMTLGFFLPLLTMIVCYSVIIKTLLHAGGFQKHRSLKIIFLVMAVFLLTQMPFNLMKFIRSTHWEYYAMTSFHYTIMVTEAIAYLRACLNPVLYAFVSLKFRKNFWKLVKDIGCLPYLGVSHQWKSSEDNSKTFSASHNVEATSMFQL
Beta-galactosidase (Escherichia coli), sequence (Q8VNN2 whole entry, looked up): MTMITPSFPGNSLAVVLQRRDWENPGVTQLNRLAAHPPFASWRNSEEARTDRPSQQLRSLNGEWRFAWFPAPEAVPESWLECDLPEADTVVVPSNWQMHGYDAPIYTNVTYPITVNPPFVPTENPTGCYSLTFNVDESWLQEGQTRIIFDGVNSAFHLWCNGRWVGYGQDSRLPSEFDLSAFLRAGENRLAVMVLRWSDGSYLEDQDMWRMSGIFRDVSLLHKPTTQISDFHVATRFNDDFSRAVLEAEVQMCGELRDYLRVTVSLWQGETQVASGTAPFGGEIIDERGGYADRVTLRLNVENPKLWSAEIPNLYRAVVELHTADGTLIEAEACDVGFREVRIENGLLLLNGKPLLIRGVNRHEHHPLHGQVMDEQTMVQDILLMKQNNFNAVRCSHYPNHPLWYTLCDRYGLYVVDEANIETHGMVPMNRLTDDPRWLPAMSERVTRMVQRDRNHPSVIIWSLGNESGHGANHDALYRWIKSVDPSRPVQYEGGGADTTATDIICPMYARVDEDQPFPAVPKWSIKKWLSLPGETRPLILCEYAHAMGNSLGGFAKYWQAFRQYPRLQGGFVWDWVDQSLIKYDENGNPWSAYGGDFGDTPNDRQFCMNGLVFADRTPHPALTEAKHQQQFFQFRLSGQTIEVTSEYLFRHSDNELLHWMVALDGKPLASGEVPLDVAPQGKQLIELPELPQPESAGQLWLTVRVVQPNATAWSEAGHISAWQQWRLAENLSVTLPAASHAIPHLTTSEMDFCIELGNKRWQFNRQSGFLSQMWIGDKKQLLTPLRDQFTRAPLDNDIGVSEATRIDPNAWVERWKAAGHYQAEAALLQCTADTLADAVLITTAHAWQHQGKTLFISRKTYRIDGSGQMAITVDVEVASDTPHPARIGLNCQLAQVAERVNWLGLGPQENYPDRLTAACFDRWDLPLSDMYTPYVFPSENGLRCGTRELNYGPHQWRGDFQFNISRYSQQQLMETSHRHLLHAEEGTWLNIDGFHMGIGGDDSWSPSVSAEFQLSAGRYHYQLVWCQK

On to `Oc1c(Cl)cc(Cl)c2cccnc12`, for which the IC50 in assay [1] (dose range 1) was > 80 µM (inactive); in assay [1] (setting [5]) it was over 80 µM; in assay [2] (CXCR6, dose range 1), 4.45 µM; in assay [2] (setting [6]), 4.17 µM; in assay [2] (CXCR6, run 2, dose range 1) it was 3.89 µM; in assay [3] (dose range 1), 3.23 µM. The IC50 in assay [3] (setting [5]) is 3.82 µM; in assay [3] (run 2, dose range 1), 4.91 µM; in assay [3] (run 3, dose range 1), 3.34 µM; in assay [4] (CCR6, dose range 1) it was 2.48 µM; in assay [4] (setting [7]), 2.71 µM; in assay [4] (CCR6, run 2, dose range 1), 2.94 µM. For the same molecule, in assay [2], the inhibition amounted to 90.2%.

Regarding `O=C(Nc1nccs1)c1sc2cc(Cl)ccc2c1Cl`, the IC50 was > 80 µM (inactive) in assay [1] (dose range 1); over 80 µM in assay [1] (setting [5]); 19 µM in assay [2] (setting [6]); 7.2 µM in assay [2] (CXCR6, run 1, dose range 2); 46.1 µM in assay [2] (CXCR6, run 2, dose range 1); 10.3 µM in assay [2] (CXCR6, run 2, dose range 2). Besides, the IC50 in assay [3] (dose range 1) is 48.2 µM; in assay [3] (setting [5]) it was 46.8 µM; in assay [3] (run 2, dose range 1) it was 45.4 µM; in assay [3] (run 3, dose range 1), over 80 µM; in assay [4] (CCR6, dose range 1) it was 9.63 µM; in assay [4] (setting [7]) it was 10.1 µM. In assay [4] (CCR6, run 2, dose range 1), this molecule showed a half-maximal inhibitory concentration (IC50) of 10.6 µM. Moreover, the IC50 result in assay [2] (CXCR6, dose range 1) was “inactive”.

With `O=[N+]([O-])c1c(Nc2ccc(O)cc2)cc(Cl)c2nonc12`, the IC50 is 35 µM in assay [1] (dose range 1); 35 µM in assay [1] (setting [5]); 1.78 µM in assay [2] (CXCR6, dose range 1); 2.71 µM in assay [2] (setting [6]); 3.01 µM in assay [2] (CXCR6, run 1, dose range 2); 3.41 µM in assay [2] (CXCR6, run 2, dose range 1). Further, the IC50 was 2.65 µM in assay [2] (CXCR6, run 2, dose range 2); 6.33 µM in assay [3] (dose range 1); 8.66 µM in assay [3] (setting [5]); 4.41 µM in assay [3] (run 2, dose range 1); 15.2 µM in assay [3] (run 3, dose range 1); 1.62 µM in assay [4] (CCR6, dose range 1). Also, the IC50 in assay [4] (setting [7]) came to 1.74 µM; in assay [4] (CCR6, run 2, dose range 1) it was 1.85 µM.

With `C/C(=N/NC(=O)c1ccc(C(C)(C)C)cc1)c1ccccn1`, the IC50 was > 80 µM (inactive) in assay [1] (dose range 1); over 80 µM in assay [1] (setting [5]); 1.32 µM in assay [2] (CXCR6, dose range 1); 1.18 µM in assay [2] (setting [6]); 0.9 µM in assay [2] (CXCR6, run 1, dose range 2); 1.79 µM in assay [2] (CXCR6, run 2, dose range 1). Moreover, the IC50 was 0.719 µM in assay [2] (CXCR6, run 2, dose range 2); 1.12 µM in assay [3] (dose range 1); 1.41 µM in assay [3] (setting [5]); 1.66 µM in assay [3] (run 2, dose range 1); 1.45 µM in assay [3] (run 3, dose range 1); 1.26 µM in assay [4] (CCR6, dose range 1). For the same molecule, the IC50 in assay [4] (setting [7]) came to 1.53 µM; in assay [4] (CCR6, run 2, dose range 1) it was 1.8 µM.

For the molecule `COC(=O)c1ccc2c(c1)C(C)(C)C(/C=C/c1ccc(OC)c(OC)c1OC)=[N+]2C`, the IC50 in assay [1] (dose range 1) was > 80 µM (inactive); in assay [1] (setting [5]), over 80 µM; in assay [2] (CXCR6, dose range 1), 11.4 µM; in assay [2] (setting [6]), 9.1 µM; in assay [2] (CXCR6, run 1, dose range 2) it was 7.35 µM; in assay [2] (CXCR6, run 2, dose range 1), 10.4 µM. The IC50 in assay [2] (CXCR6, run 2, dose range 2) is 7.23 µM; in assay [3] (dose range 1) it was 15.1 µM; in assay [3] (setting [5]) it was 15 µM; in assay [3] (run 2, dose range 1), 14.3 µM; in assay [3] (run 3, dose range 1) it was 15.8 µM; in assay [4] (CCR6, dose range 1), 7.5 µM. Moreover, the IC50 was determined as 9.27 µM in assay [4] (setting [7]) and 11 µM in assay [4] (CCR6, run 2, dose range 1).

On to `CCOc1ccccc1NC(=O)c1nc(S(=O)(=O)Cc2ccccc2)ncc1Cl`, for which the IC50 in assay [1] (dose range 1) is > 80 µM (inactive); in assay [1] (setting [5]), over 80 µM; in assay [2] (CXCR6, dose range 1) it was 9.59 µM; in assay [2] (setting [6]), 10.7 µM; in assay [2] (CXCR6, run 1, dose range 2), 11.2 µM; in assay [2] (CXCR6, run 2, dose range 1), 11.5 µM. Moreover, the IC50 in assay [2] (CXCR6, run 2, dose range 2) was 10.7 µM; in assay [3] (dose range 1), 13.4 µM; in assay [3] (setting [5]), 13.4 µM; in assay [3] (run 2, dose range 1), 13.4 µM; in assay [3] (run 3, dose range 1), over 80 µM; in assay [4] (CCR6, dose range 1) it was 8.24 µM. Moreover, the half-maximal inhibitory concentration (IC50) in assay [4] (setting [7]) amounted to 7.46 µM; in assay [4] (CCR6, run 2, dose range 1) it was 6.69 µM.

For the molecule `O=C(C#Cc1ccccc1)c1ccc([N+](=O)[O-])cc1`, the IC50 in assay [1] (dose range 1) is > 80 µM (inactive); in assay [1] (setting [5]), over 80 µM; in assay [2] (CXCR6, dose range 1), 2.67 µM; in assay [2] (setting [6]) it was 2.62 µM; in assay [2] (CXCR6, run 2, dose range 1) it was 2.57 µM; in assay [3] (dose range 1) it was 4.35 µM. For the same molecule, the IC50 in assay [3] (setting [5]) is 4.53 µM; in assay [3] (run 2, dose range 1), 5.55 µM; in assay [3] (run 3, dose range 1), 3.7 µM; in assay [4] (CCR6, dose range 1) it was 1.46 µM; in assay [4] (setting [7]), 1.72 µM; in assay [4] (CCR6, run 2, dose range 1), 1.98 µM. Moreover, in assay [2], the inhibition was determined as 131%.

As to `O=[N+]([O-])c1cc2oc3c(c2c(C=NCc2ccccc2)c1O)CCCC3`, the IC50 was > 80 µM (inactive) in assay [1] (dose range 1); over 80 µM in assay [1] (setting [5]); 20.9 µM in assay [2] (setting [6]); 4.04 µM in assay [2] (CXCR6, run 1, dose range 2); over 80 µM in assay [2] (CXCR6, run 2, dose range 1); 6.46 µM in assay [2] (CXCR6, run 2, dose range 2). The IC50 was 25.5 µM in assay [3] (dose range 1); 25.5 µM in assay [3] (setting [5]); over 80 µM in assay [3] (run 2, dose range 1); over 80 µM in assay [3] (run 3, dose range 1); 27.3 µM in assay [4] (CCR6, dose range 1); 39.8 µM in assay [4] (setting [7]). In addition, the IC50 in assay [4] (CCR6, run 2, dose range 1) was determined as 52.2 µM. The IC50 entry in assay [2] (CXCR6, dose range 1) is “inactive”.

For the molecule `Cc1c(Cl)sn(-c2ccc(Cl)cc2)c1=O`, the IC50 in assay [1] (dose range 1) was > 80 µM (inactive); in assay [1] (setting [5]), over 80 µM; in assay [2] (CXCR6, dose range 1), 8.91 µM; in assay [2] (setting [6]), 9.37 µM; in assay [2] (CXCR6, run 1, dose range 2), 11.2 µM; in assay [2] (CXCR6, run 2, dose range 1), 7.95 µM. In addition, the IC50 in assay [2] (CXCR6, run 2, dose range 2) is 9.39 µM; in assay [3] (dose range 1) it was 16.4 µM; in assay [3] (setting [5]), 22.8 µM; in assay [3] (run 2, dose range 1), 14.4 µM; in assay [3] (run 3, dose range 1), 37.5 µM; in assay [4] (CCR6, dose range 1) it was 3.26 µM. In addition, the IC50 in assay [4] (setting [7]) is 3.71 µM; in assay [4] (CCR6, run 2, dose range 1), 4.17 µM.

Take `O=S(=O)(/C=C/C=C/S(=O)(=O)c1ccccc1)c1ccccc1`: the IC50 in assay [1] (dose range 1) was > 80 µM (inactive); in assay [1] (setting [5]), over 80 µM; in assay [2] (CXCR6, dose range 1), 11.6 µM; in assay [2] (setting [6]) it was 10.5 µM; in assay [2] (CXCR6, run 1, dose range 2) it was 10.1 µM; in assay [2] (CXCR6, run 2, dose range 1) it was 8.76 µM. In addition, the IC50 in assay [2] (CXCR6, run 2, dose range 2) was 11.4 µM; in assay [3] (dose range 1) it was 23.5 µM; in assay [3] (setting [5]), 24.6 µM; in assay [3] (run 2, dose range 1) it was 25.7 µM; in assay [3] (run 3, dose range 1), over 80 µM; in assay [4] (CCR6, dose range 1) it was 7.48 µM. The IC50 is 7.41 µM in assay [4] (setting [7]) and 7.33 µM in assay [4] (CCR6, run 2, dose range 1).

Consider `O=C(CSc1nc(-c2ccco2)cc(C(F)(F)F)n1)NCCCn1ccnc1`, for which the IC50 was > 80 µM (inactive) in assay [1] (dose range 1); over 80 µM in assay [1] (setting [5]); 16.9 µM in assay [2] (setting [6]); 18.3 µM in assay [2] (CXCR6, run 2, dose range 1); 20.7 µM in assay [3] (dose range 1); 21.4 µM in assay [3] (setting [5]). The IC50 in assay [3] (run 2, dose range 1) was 22.8 µM; in assay [3] (run 3, dose range 1) it was 20.7 µM; in assay [4] (CCR6, dose range 1) it was 17.6 µM; in assay [4] (setting [7]), 19.3 µM; in assay [4] (CCR6, run 2, dose range 1), 21.1 µM. Besides, the IC50 entry in assay [2] (CXCR6, dose range 1) is “inactive”. In addition, the inhibition in assay [2] is 126%.

As for `C=C1C(=O)c2sccc2C(c2ccc(OC)c(OC)c2)C1COC(C)=O` (stereo not given), the IC50 in assay [1] (dose range 1) was > 80 µM (inactive); in assay [1] (setting [5]) it was over 80 µM; in assay [2] (CXCR6, dose range 1), 6.54 µM; in assay [2] (setting [6]), 6.19 µM; in assay [2] (CXCR6, run 1, dose range 2), 5.73 µM; in assay [2] (CXCR6, run 2, dose range 1), 6.78 µM. Further, the IC50 in assay [2] (CXCR6, run 2, dose range 2) was 5.7 µM; in assay [3] (dose range 1), 7.28 µM; in assay [3] (setting [5]) it was 6.69 µM; in assay [3] (run 2, dose range 1) it was 6.03 µM; in assay [3] (run 3, dose range 1) it was 6.75 µM; in assay [4] (CCR6, dose range 1), 4.58 µM. Further, the IC50 in assay [4] (setting [7]) turned out to be 5.3 µM; in assay [4] (CCR6, run 2, dose range 1), 6.02 µM.
